Data from patent US7294687B2, “Parenteral formulations of a peptide for the treatment of systemic lupus erythematosus” (TEVA Pharmaceutical Industries, Ltd., priority 2003, dated 2007).
Like-named read-outs stand apart in the source and are kept apart here.

Legend:
[1] = Solubility of Compound 1 peptide, formulation development; assay type: physicochemical
Excerpt: In order to develop a formulation for sub-cutaneous injection, it is also desirable that the pH be in the range of 4 to 9 and that the solution be iso-osmotic.
The pH was adjusted if needed.

[2] = system: IL-2 secretion from Compound 1 reference standard (RS) specific T-cells; test: Inhibition of IL-2 secretion from Compound 1 RS specific T-cells following s.c. treatment, ELISA; assay type: in vivo, mice; conditions: at the range of 5-100 μg/ml activator
Excerpt: The biological activity was monitored by inhibition of IL-2 secretion from Compound 1 reference standard (RS) specific T-cells following subcutaneous (s.c.) treatment with the lyophilized compound solution, i.e. the drug product (DP), at two concentrations. The results of the treatment are compared to those of treating mice with Compound 1 (RS) in phosphate buffered saline (PBS).

[3] = system: IFN-γ secretion by LN cells; test: IFN-γ secretion by cultured LN cells of immunized and treated mice, ELISA; assay type: in vivo, BALB/c mice
Description: A group of 20 mice were immunized with 50 μg/mouse of Compound 1 RS. The immunized mice were allocated to five treatment groups as follows: placebo, 25, 50, 100 and 200 μg/mouse of Compound 1 DP (subcutaneous administration). Ten days post immunization and treatment, LN was extracted and single cell suspension was prepared. The in-vitro secretion of IFN-γ and TGF-β by the cultured cells in response to activation with several concentrations of Compound 1 RS was then measured. [table] [table] […] Mice were sacrificed by cervical dislocation. LN were extracted from the hind legs and were transferred to a sterile petri dish containing about 5 mL RPMI. The cells were extracted by gentle squeezing of the tissue against a 200 micrometer mesh stainless steel net. The cells were collected and centrifuged at 300 G for 10 minutes at RT. Single cell suspensions were prepared from pooled LN of each experimental group. […] Secretion of IFN-γ and TGF-β, as indication of cellular response, were determined by ELISA of culture media (48 hrs for IFN-γ and 72 hrs for TGF-β). [table]

[4] = system: SLE-prone (NZBxNZW)F1 female mouse; test: Intensity of immune complex deposits (ICD) in kidneys; assay type: in vivo, (NZBxNZW)F1 mice
Description: The same batch of drug substance was used in this study and in the first Phase I clinical trial with Compound 1. The mice were followed for anti-dsDNA antibodies and for proteinuria. When the mice were sacrificed, the intensity of ICD was determined in kidneys.

SLE subjects [5] = test: Phase Ia single dose clinical study, tolerability and safety; assay type: in vivo, human
Description: The following safety parameters were assessed at Screening, during the hospitalization and at follow-up visits including Termination visit: vital signs (systolic blood pressure, diastolic blood pressure, pulse, oxygen saturation, temperature and weight), 12-lead ECG, change in physical examination and clinical routine laboratory safety tests. Adverse events were recorded at the Dosing Day and at each visit thereafter.

SLE subjects [6] = test: Phase Ib multiple dose clinical study, tolerability and safety; assay type: in vivo, human; conditions: multiple subcutaneous doses of 0.5, 1 or 2.5 mg in 120 mg Captisol®; 12 sc injections
Description: This study is being performed in order to evaluate the safety and tolerability of repeated Compound 1 sc administration to SLE subjects. […] The investigational product is administered every other day (excluding weekends) for a total of 12 sc injections, i.e. 3 doses a week for 4 weeks. Subjects are monitored on planned visits scheduled at 2, 4, 8 and 12 weeks after start of dosing. Safety and tolerability are evaluated using tests similar to those described in the Phase Ia Clinical Study above.

[7] = Stability of Compound 1 versus pH, initial tests; assay type: physicochemical; conditions: basic pH range
Description: Thus, several buffers and pH adjustment agents were tested, including acetate buffer, citrate buffer and sodium carbonate. None of the initially tested buffers achieved the desired peptide solubility level. […] Nevertheless, at the initial stage, formulations with acetate buffer and citrate buffer (with Mannitol as a tonicity agent) were selected for initial toxicology studies. These formulations were tested for biological activity and proven active.

[8] = system: peripheral blood lymphocytes (PBL) of SLE subjects; conditions: Compound 1 in captisol®, throughout the study period
[9] = system: Balb/c mice and SLE-prone (NZBxNZW)F1 mice; conditions: cited from earlier work
[10] = system: peripheral blood lymphocytes (PBL) of SLE patients; conditions: cited from earlier work
[11] = single s.c. dose 0.5, 1 or 2.5 mg in Captisol®
[12] = single s.c. dose 0.5, 1 or 2.5 mg in Captisol®, vs placebo

## H-GYYWSWIRQPPGKGEEWIG-OH [Compound 1]
[1]; only above pH 9.2 and below pH 3.0, buffers and pH adjustment agents, read-out: solubility levels
  solubility: ≥ 2000 µg/mL
[1]; water (aqueous solution), acetate salt, read-out: aqueous solubility of the peptide
  solubility: < 500 µg/mL
[2]; treatment 50 μg/mouse s.c.
  Average inhibition (%) of IL-2 secretion: 45.6%
[2]; treatment 200 μg/mouse s.c.
  Average inhibition (%) of IL-2 secretion: 60.4%
[3]; Compound 1 DP 25 μg/M s.c., 5 million cells/well, activation Compound 1 RS 3.125 μg/ml
  Final cytokine (IFN-γ secretion): BQL
[3]; Compound 1 DP 25 μg/M s.c., 5 million cells/well, activation Compound 1 RS 6.25 μg/ml
  Final cytokine (IFN-γ secretion): BQL
[3]; Compound 1 DP 25 μg/M s.c., 5 million cells/well, activation Compound 1 RS 12.5 μg/ml
  Final cytokine (IFN-γ secretion): 41.9 pg/mL
[3]; Compound 1 DP 25 μg/M s.c., 5 million cells/well, activation Compound 1 RS 50 μg/ml
  Final cytokine (IFN-γ secretion): 104.2 pg/mL
[3]; Compound 1 DP 25 μg/M s.c., 5 million cells/well, activation Compound 1 RS 100 μg/ml
  Final cytokine (IFN-γ secretion): 185.2 pg/mL
[3]; Compound 1 DP 25 μg/M s.c., 5 million cells/well, activation Compound 1 RS 25 μ/ml
  Final cytokine (IFN-γ secretion): 70.0 pg/mL
[3]; Compound 1 DP 25 μg/M s.c., 5 million cells/well, activation Con A
  Final cytokine (IFN-γ secretion): 2995.3 pg/mL
[3]; Compound 1 DP 50 μg/M s.c., 2.5 million cells/well, activation Compound 1 RS 3.125 μg/ml
  Final cytokine (IFN-γ secretion): 54.1 pg/mL
[3]; Compound 1 DP 50 μg/M s.c., 2.5 million cells/well, activation Compound 1 RS 6.25 μg/ml
  Final cytokine (IFN-γ secretion): 81.8 pg/mL
[3]; Compound 1 DP 50 μg/M s.c., 2.5 million cells/well, activation Compound 1 RS 12.5 μg/ml
  Final cytokine (IFN-γ secretion): 123.1 pg/mL
[3]; Compound 1 DP 50 μg/M s.c., 2.5 million cells/well, activation Compound 1 RS 50 μg/ml
  Final cytokine (IFN-γ secretion): 292.5 pg/mL
[3]; Compound 1 DP 50 μg/M s.c., 2.5 million cells/well, activation Compound 1 RS 100 μg/ml
  Final cytokine (IFN-γ secretion): 531.8 pg/mL
[3]; Compound 1 DP 50 μg/M s.c., 2.5 million cells/well, activation Compound 1 RS 25 μ/ml
  Final cytokine (IFN-γ secretion): 215.1 pg/mL
[3]; Compound 1 DP 50 μg/M s.c., 2.5 million cells/well, activation Con A
  Final cytokine (IFN-γ secretion): 356.2 pg/mL
[3]; Compound 1 DP 50 μg/M s.c., 5 million cells/well, activation Compound 1 RS 3.125 μg/ml
  Final cytokine (IFN-γ secretion): 76.2 pg/mL
[3]; Compound 1 DP 50 μg/M s.c., 5 million cells/well, activation Compound 1 RS 6.25 μg/ml
  Final cytokine (IFN-γ secretion): 109.2 pg/mL
[3]; Compound 1 DP 50 μg/M s.c., 5 million cells/well, activation Compound 1 RS 12.5 μg/ml
  Final cytokine (IFN-γ secretion): 179.5 pg/mL
[3]; Compound 1 DP 50 μg/M s.c., 5 million cells/well, activation Compound 1 RS 50 μg/ml
  Final cytokine (IFN-γ secretion): 373.4 pg/mL
[3]; Compound 1 DP 50 μg/M s.c., 5 million cells/well, activation Compound 1 RS 100 μg/ml
  Final cytokine (IFN-γ secretion): 547.0 pg/mL
[3]; Compound 1 DP 50 μg/M s.c., 5 million cells/well, activation Compound 1 RS 25 μ/ml
  Final cytokine (IFN-γ secretion): 277.9 pg/mL
[3]; Compound 1 DP 50 μg/M s.c., 5 million cells/well, activation Con A
  Final cytokine (IFN-γ secretion): 4837.0 pg/mL
[3]; Compound 1 DP 100 μg/M s.c., 2.5 million cells/well, activation Compound 1 RS 3.125 μg/ml
  Final cytokine (IFN-γ secretion): 64.5 pg/mL
[3]; Compound 1 DP 100 μg/M s.c., 2.5 million cells/well, activation Compound 1 RS 6.25 μg/ml
  Final cytokine (IFN-γ secretion): 116.1 pg/mL
[3]; Compound 1 DP 100 μg/M s.c., 2.5 million cells/well, activation Compound 1 RS 12.5 μg/ml
  Final cytokine (IFN-γ secretion): 180.9 pg/mL
[3]; Compound 1 DP 100 μg/M s.c., 2.5 million cells/well, activation Compound 1 RS 50 μg/ml
  Final cytokine (IFN-γ secretion): 518.3 pg/mL
[3]; Compound 1 DP 100 μg/M s.c., 2.5 million cells/well, activation Compound 1 RS 100 μg/ml
  Final cytokine (IFN-γ secretion): 582.7 pg/mL
[3]; Compound 1 DP 100 μg/M s.c., 2.5 million cells/well, activation Compound 1 RS 25 μ/ml
  Final cytokine (IFN-γ secretion): 262.8 pg/mL
[3]; Compound 1 DP 100 μg/M s.c., 2.5 million cells/well, activation Con A
  Final cytokine (IFN-γ secretion): 337.4 pg/mL
[3]; Compound 1 DP 100 μg/M s.c., 5 million cells/well, activation Compound 1 RS 3.125 μg/ml
  Final cytokine (IFN-γ secretion): 90.8 pg/mL
[3]; Compound 1 DP 100 μg/M s.c., 5 million cells/well, activation Compound 1 RS 6.25 μg/ml
  Final cytokine (IFN-γ secretion): 157.8 pg/mL
[3]; Compound 1 DP 100 μg/M s.c., 5 million cells/well, activation Compound 1 RS 12.5 μg/ml
  Final cytokine (IFN-γ secretion): 257.1 pg/mL
[3]; Compound 1 DP 100 μg/M s.c., 5 million cells/well, activation Compound 1 RS 50 μg/ml
  Final cytokine (IFN-γ secretion): 739.7 pg/mL
[3]; Compound 1 DP 100 μg/M s.c., 5 million cells/well, activation Compound 1 RS 100 μg/ml
  Final cytokine (IFN-γ secretion): 995.5 pg/mL
[3]; Compound 1 DP 100 μg/M s.c., 5 million cells/well, activation Compound 1 RS 25 μ/ml
  Final cytokine (IFN-γ secretion): 421.7 pg/mL
[3]; Compound 1 DP 100 μg/M s.c., 5 million cells/well, activation Con A
  Final cytokine (IFN-γ secretion): 10126.8 pg/mL
[3]; Compound 1 DP 200 μg/M s.c., 2.5 million cells/well, activation Compound 1 RS 3.125 μg/ml
  Final cytokine (IFN-γ secretion): 103.9 pg/mL
[3]; Compound 1 DP 200 μg/M s.c., 2.5 million cells/well, activation Compound 1 RS 6.25 μg/ml
  Final cytokine (IFN-γ secretion): 126.1 pg/mL
[3]; Compound 1 DP 200 μg/M s.c., 2.5 million cells/well, activation Compound 1 RS 12.5 μg/ml
  Final cytokine (IFN-γ secretion): 129.0 pg/mL
[3]; Compound 1 DP 200 μg/M s.c., 2.5 million cells/well, activation Compound 1 RS 50 μg/ml
  Final cytokine (IFN-γ secretion): 378.1 pg/mL
[3]; Compound 1 DP 200 μg/M s.c., 2.5 million cells/well, activation Compound 1 RS 100 μg/ml
  Final cytokine (IFN-γ secretion): 524.1 pg/mL
[3]; Compound 1 DP 200 μg/M s.c., 2.5 million cells/well, activation Compound 1 RS 25 μ/ml
  Final cytokine (IFN-γ secretion): 240.3 pg/mL
[3]; Compound 1 DP 200 μg/M s.c., 2.5 million cells/well, activation Con A
  Final cytokine (IFN-γ secretion): BQL
[3]; Compound 1 DP 200 μg/M s.c., 5 million cells/well, activation Compound 1 RS 3.125 μg/ml
  Final cytokine (IFN-γ secretion): 204.4 pg/mL
[3]; Compound 1 DP 200 μg/M s.c., 5 million cells/well, activation Compound 1 RS 6.25 μg/ml
  Final cytokine (IFN-γ secretion): 244.1 pg/mL
[3]; Compound 1 DP 200 μg/M s.c., 5 million cells/well, activation Compound 1 RS 12.5 μg/ml
  Final cytokine (IFN-γ secretion): 466.1 pg/mL
[3]; Compound 1 DP 200 μg/M s.c., 5 million cells/well, activation Compound 1 RS 50 μg/ml
  Final cytokine (IFN-γ secretion): 922.5 pg/mL
[3]; Compound 1 DP 200 μg/M s.c., 5 million cells/well, activation Compound 1 RS 100 μg/ml
  Final cytokine (IFN-γ secretion): 1006.2 pg/mL
[3]; Compound 1 DP 200 μg/M s.c., 5 million cells/well, activation Compound 1 RS 25 μ/ml
  Final cytokine (IFN-γ secretion): 660.5 pg/mL
[3]; Compound 1 DP 200 μg/M s.c., 5 million cells/well, activation Con A
  Final cytokine (IFN-γ secretion): 7722.8 pg/mL
[3]; all the doses used for treatment (25-200 μg/mouse)
  inhibition of IFN-γ secretion: Significant inhibition
[4]; 50 μg/mouse in Captisol ®, intensity scale 0 = none to 3 = severe/extremely intense
  ICD (Mean ± SEM): 1.90 ± 0.23
[4]; 25 or 50 μg/mouse dissolved in Captisol®, FIG. 6
  intensity of immune complex deposits in kidney sections: much lower than that observed in the control group
SLE subjects [5]; [11]
  QTc change from baseline: ≤ 60 ms
  serious adverse event (SAE) or AE classified as severe: No serious adverse event (SAE) or AE classified as severe occurred
  vital signs parameters (systolic and diastolic blood pressure, pulse, oxygen saturation): No clinically significant effect
SLE subjects [5]; [12]
  categorical ECG measurements and digitized ECG parameters: No differences of clinical significance
  incidence of AEs: no prominent difference
SLE subjects [5]; single subcutaneous dose of 0.5, 1 or 2.5 mg in 120 mg Captisol®
  safety and tolerability, Phase Ia: safe and well tolerated
SLE subjects [6]
  safety and tolerability, Phase Ib: safe and well tolerated
[7]
  stability versus pH: less stable
[8]
  immunological response to TTX recall antigen: did not change the immunological response to TTX recall antigen
[9]; Balb/c and (NZBxNZW)F1 mice
  SLE related findings: immune complex deposits (ICD) in the kidney, proteinuria and leukopenia: significantly reduced
[9]; mouse, in vivo
  disease manifestations of mice afflicted with spontaneous or experimental SLE: ameliorate disease manifestations
[10]
  proliferative response of PBL of SLE patients to the human anti-DNA 16/6Id mAB: inhibit the proliferative response
